# Entries after “also recorded” stand apart in the source; their conditions may differ. Like-named read-outs stand apart in the source and are kept apart here. Where a SMILES comes first, the peptide text is derived from it. The star is where a group is joined. MeOSuc = COC(=O)CCC(=O)*; CH2Cl = ClC*
# T1: HNE in U937 lysates (Homo sapiens, UniProt P08246)
# T1 construct: the myeloid cell line U937, which can differentiate into neutrophils [25] and expresses HNE; host or cells: U937 (histiocytic lymphoma), undifferentiated
# T1 sequence (P08246 30-247 limits assumed): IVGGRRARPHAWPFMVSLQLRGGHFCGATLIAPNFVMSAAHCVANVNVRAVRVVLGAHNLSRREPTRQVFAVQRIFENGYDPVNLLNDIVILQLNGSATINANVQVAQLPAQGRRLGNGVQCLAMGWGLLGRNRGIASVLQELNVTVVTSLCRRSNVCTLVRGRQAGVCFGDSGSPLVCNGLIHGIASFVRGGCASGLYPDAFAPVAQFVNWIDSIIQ
# T2: isolated HNE (human neutrophil elastase) (Homo sapiens, UniProt P08246)
# T2 construct: immediately processed to its active form in the trans-Golgi before being targeted to azurophil granules; purchased Merck (Darmstadt, Germany) 324681
# T2 sequence (P08246 30-267): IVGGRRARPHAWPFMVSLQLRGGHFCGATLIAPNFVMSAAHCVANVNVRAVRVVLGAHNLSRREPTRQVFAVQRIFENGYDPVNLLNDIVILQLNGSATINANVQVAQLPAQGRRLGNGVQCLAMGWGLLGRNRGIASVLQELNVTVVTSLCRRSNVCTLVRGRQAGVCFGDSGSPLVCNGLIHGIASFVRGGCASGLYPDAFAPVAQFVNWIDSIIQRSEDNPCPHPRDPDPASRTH
# T3: isolated HNE (Homo sapiens, UniProt P08246)
# T3 construct: immediately processed to its active form in the trans-Golgi before being targeted to azurophil granules; purchased Merck (Darmstadt, Germany) 324681
# T3 sequence (P08246 30-267): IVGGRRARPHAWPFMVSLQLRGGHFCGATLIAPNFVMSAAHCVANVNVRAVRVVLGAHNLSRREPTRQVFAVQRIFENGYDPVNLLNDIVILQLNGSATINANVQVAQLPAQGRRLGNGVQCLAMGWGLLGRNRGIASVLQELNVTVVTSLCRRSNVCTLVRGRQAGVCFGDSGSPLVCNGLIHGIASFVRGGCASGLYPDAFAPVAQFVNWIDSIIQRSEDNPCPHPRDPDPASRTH
# T4: HNE in mature PMN (Homo sapiens, UniProt P08246)
# T4 sequence (P08246 30-247 limits assumed): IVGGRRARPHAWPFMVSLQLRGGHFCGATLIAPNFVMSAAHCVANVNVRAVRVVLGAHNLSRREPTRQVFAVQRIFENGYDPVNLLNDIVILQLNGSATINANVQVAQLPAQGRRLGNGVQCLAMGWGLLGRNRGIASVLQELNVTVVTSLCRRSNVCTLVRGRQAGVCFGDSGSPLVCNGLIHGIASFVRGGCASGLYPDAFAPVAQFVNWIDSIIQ
# T5: HNE in U937 cells (Homo sapiens, UniProt P08246)
# T5 construct: the myeloid cell line U937, which can differentiate into neutrophils [25] and expresses HNE; host or cells: U937 (histiocytic lymphoma), undifferentiated
# T5 sequence (P08246 30-247 limits assumed): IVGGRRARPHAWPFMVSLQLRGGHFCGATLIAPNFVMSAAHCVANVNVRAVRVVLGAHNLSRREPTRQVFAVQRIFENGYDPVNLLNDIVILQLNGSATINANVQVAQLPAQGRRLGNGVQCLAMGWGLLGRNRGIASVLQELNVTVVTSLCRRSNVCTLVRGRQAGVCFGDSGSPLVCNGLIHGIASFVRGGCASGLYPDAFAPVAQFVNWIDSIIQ
# T6: elastase-like activity (HNE) in PMN lysates (Homo sapiens, UniProt P08246)
# T6 construct: from tissue; host or cells: neutrophil granulocytes from peripheral venous blood of healthy human donors
# T6 sequence (P08246 30-247 limits assumed): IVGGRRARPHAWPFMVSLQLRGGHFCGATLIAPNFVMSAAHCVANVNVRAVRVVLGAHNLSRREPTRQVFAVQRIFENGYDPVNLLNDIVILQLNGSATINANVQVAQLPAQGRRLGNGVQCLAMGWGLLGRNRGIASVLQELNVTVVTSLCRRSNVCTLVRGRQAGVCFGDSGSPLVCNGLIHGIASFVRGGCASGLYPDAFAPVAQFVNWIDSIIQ
# T7: eglin C (Hirudo medicinalis, UniProt P01051)
# T7 chain: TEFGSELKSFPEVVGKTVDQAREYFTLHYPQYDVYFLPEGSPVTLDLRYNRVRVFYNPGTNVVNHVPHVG
# Legend:
# HNE in U937 lysates = molecular target: T1, HNE in U937 lysates; assay: Inhibition of HNE activity in U937 lysates; format: biochemical; settings: for Ki: U937 lysate 1000 cells/µL, incubated 1 h 37 °C, Morrison fit, mean ± SD
# Protocol: (§1) For the quantification and characterization of HNE-like activity in cell lysates, the density of the sample cell suspension was first quantified using a CASY-1 cell counter.
# (§2) To determine the inhibition constants of reversible inhibitors with isolated HNE and HNE in cell lysates, HNE (0.5 nM) and U937 lysates (1000 cells/µL) were incubated with serial dilutions of the compounds in assay buffer at 37 °C for ≥ 1 h. Subsequently, residual HNE activity was measured as described above and compared to the activity of uninhibited HNE. […] The inhibition curves generated were fitted to Morrisons’s equation to obtain the dissociation equilibrium constant Ki with pro-Fit (Quantum Soft, Uetikon am See, Switzerland) using a Levenberg–Marquardt algorithm.
# [1] = molecular target: T2, isolated HNE (human neutrophil elastase); assay: Inhibition of isolated HNE, steady-state kinetics (MeOSuc-AAPV-AMC); format: biochemical; settings: for Ki: incubated 1 h 37 °C, Morrison fit, mean ± SD, compound 5b in phosphate buffer pH 7.4; for inhibition of HNE (in words): negative controls
# Protocol: as §2
# isolated HNE [2] = molecular target: T3, isolated HNE; set-up: method as in PMID 21791628; settings: cited from earlier work
# HNE in mature PMN = molecular target: T4, HNE in mature PMN; assay: Intracellular HNE inhibition in freshly isolated mature PMN; settings: for potency in PMN compared with U937 cells (in words): PMN 1 h vs U937 0-3 h
# Protocol: Peripheral venous blood was collected from six healthy donors after informed consent (votum 018-09 of the local ethics committee), and differential blood counts were performed. Neutrophil granulocytes were isolated using the MACSxpress neutrophil isolation kit (Miltenyi Biotec, Bergisch Gladbach, Germany) following the manufacturer’s instructions. Residual erythrocytes were eliminated by hypotonic lysis. Neutrophils were resuspended in PBS with glucose (1 g/L) at a density of 50–100 cells/µL. The purity of the final cell population was analyzed by staining a smear using Pappenheim’s method and counting ≥200 cells using a light microscope.
# (§3) The enzymatic activity of HNE was measured using a fluorescence-based assay in 96-well black bottom plates (Corning®, 003916, New York, NY, USA). HNE (0.5 nM) or cell lysates (20 µL, ~100 PMN/µL, ~1000 U937/µL, ~5000 HL-60/µL or ~1000 HMC-1/µL) were diluted in assay buffer (200 mM TRIS HCl, 500 mM NaCl, 0.05% Tween-20, pH 8.0). […] AMC (7-Amino-4-methylcoumarin) standard curves were generated by measuring serial dilutions of the fluorophore AMC (1 µM–0 µM) in assay buffer on the same plate and used to calculate nM AMC generation from fluorescence measurements.
# (§4) U937 cells were plated in sterile 96-U-well plates (92697, TPP, Trasadingen, Switzerland) at a density of 100 cells/µL in a cell culture medium (180 µL per well). Increasing concentrations of inhibitors and solvent controls were diluted in a culture medium and added (20 µL/well) to the 96-well plate 26 h, 6 h, 3 h, and 0 h before harvesting and lysing the cells (see below). Plates were kept at 37 °C, 5% CO2, and 95% humidity throughout the incubation period. […] Similarly, freshly isolated PMN were plated at 50–100 cells/µL in PBS (1 g/L glucose) and incubated for 1 h with inhibitors or controls.
# (§5) For cell lysis, cells were pelleted in the microtiter plates by centrifugation (400× g, 10 min, 4 °C) and washed three times in PBS (4 °C). Washed cells were then lysed by adding lysis buffer (PBS, 1 M NaCl, 0.1% Tween-20, pH 7.4) and freeze–thawing on dry ice. Finally, lysates were centrifuged (2100× g) to remove cell debris. Enzymatic activity of HNE was determined as described above, and residual activity present after incubation with inhibitors expressed as % of matched solvent controls.
# isolated HNE [3] = molecular target: T3, isolated HNE; assay: Formation and dissociation of the HNE/inhibitor complex (pre-steady-state kinetics); format: biochemical; settings: for koff: koff = Ki × kon, irreversible inhibitors ≈ zero; for kon: pre-steady-state kinetics, HNE 0.6 nM, 37 °C, mean ± SD
# Protocol: To determine the association rates (kon) of the inhibitors, the enzymatic activity of HNE (0.6 nM) was recorded continuously in an SFM25 fluorometer (Biotek Kontron, Neufahrn, Germany) by following the cleavage of MeOSuc-AAPV-AMC (10 µM) at 37 °C. When a constant rate was established (i.e., after 1–5 min), an inhibitor was added, and the reaction followed for up to 60 min. The pseudo-first-order rate constant kobs was obtained by fitting the observed presteady-state progress curve to the integrated equation of Morrison with pro-Fit. Apparent second-order rate constants were subsequently calculated as k2/Ki = kobs/It by linear regression from several independent experiments using a range of concentrations. For reversible inhibitors, the dissociation rate koff was subsequentially calculated as koff = Ki × kon; for irreversible inhibitors, koff is ≈ zero. Finally, the halftime of the HNE/inhibitor complex formation and dissociation were calculated as t1/2,on = 0.693/(kass × It + koff) and t1/2,off = 0.693/koff, respectively.
# HNE in U937 cells = molecular target: T5, HNE in U937 cells; assay: Intracellular HNE inhibition in cultured U937 cells (residual activity in lysates); format: cell-based; settings: for effect on HNE activity in the U937 cell culture model (in words): 0-26 h, increasing concentrations, alvelestat and sivelestat up to more than 1000-fold above Ki; for time course of HNE inhibition in U937 cells (in words): 0-26 h culture
# Protocol: as §3, §4, §5
# [4] = molecular target: T6, elastase-like activity (HNE) in PMN lysates; assay: Inhibition of elastase-like activity in PMN lysates; format: biochemical; settings: 4 µM, 1 h, 37 °C; read-out: inhibition of elastase-like activity in PMN lysate
# Text: Residual erythrocytes were eliminated by hypotonic lysis.
# as §1
# [5] = test system: elastase-like activity in HL-60 lysates; assay: Inhibition of elastase-like activity in HL-60 lysates; format: biochemical, human; settings: 4 µM, 1 h, 37 °C
# Text: as §1
# U937 cells = assay: LDH release from U937 cells; format: cell-based, human; settings: 12.5 µM, after 26 h
# Protocol: Cytotoxicity of the inhibitors was determined by analyzing the release of lactate dehydrogenase (LDH) into the cell culture medium using the LDH cytotoxicity kit II (PromoKine, Heidelberg, Germany) or the more sensitive Pierce LDH cytotoxicity assay kit (Thermo Scientific, Darmstadt, Germany) following the manufacturer’s instructions.
# [6] = Inhibitor stability in serum-free cell culture medium; format: physicochemical; settings: 26 h, serum-free medium, 37 °C
# Protocol: Inhibitors were prepared as above and incubated for 26 h in RPMI at 37 °C. Residual inhibitor activity was compared to the activity of freshly prepared compounds by measuring the inhibition of HNE.
# eglin C [7] = molecular target: T7, eglin C; assay: steady-state inhibition, Morrison fit, isolated HNE
# eglin C [8] = molecular target: T7, eglin C; assay: steady-state inhibition, Morrison fit, U937 lysate
# surface of neutrophils = test system: surface of neutrophils; set-up: method as in earlier work; settings: ref 41 (Braun and Schnebli); read-out: surface binding affinity Kd; cited from earlier work
Molecule,Ki (HNE in U937 lysates) [µM],Ki ([1]; HNE 0.5 nM) [µM],effect on HNE in mature PMN (in words) (HNE in mature PMN; 1 h incubation),effect on HNE activity in the U937 cell culture model (in words) (HNE in U937 cells),potency in PMN compared with U937 cells (in words) (HNE in mature PMN),koff (isolated HNE [3]) [s⁻¹],kon (isolated HNE [3]),time course of HNE inhibition in U937 cells (in words) (HNE in U937 cells),further results
"N=C(N)c1ccccc1 [Benzamidine, benzamidine]",> 1000,> 1000,–,–,–,–,–,–,inhibition of HNE (in words) [1]: no inhibition
"Cc1c(-c2ccnn2C)cc(C(=O)NCc2ccc(S(C)(=O)=O)cn2)c(=O)n1-c1cccc(C(F)(F)F)c1 [Alvelestat, alvelestat]",0.011,0.009,negligible effect,no detectable effect; also recorded: no measurable effect; also recorded: do not cause detectable intracellular inhibition,–,–,–,–,koff (isolated HNE [2]): 0.057 s⁻¹; kon (isolated HNE [2]; too fast to be recorded with authors' setup): 7e+06 M⁻¹ s⁻¹; half-life of the complex with HNE (in words) (isolated HNE [3]): seconds to a few minutes
CCC[C@@H](NC(=O)N1C(=O)C(CC)(CC)[C@@H]1Oc1ccc(C(=O)N2CCN(C)CC2)cc1)c1ccc2c(c1)OCO2 [DMP 777],0.00034,0.00025,–,–,somewhat less potent,0.00012,4.9 ± 0.4 × 10^5 M^−1 s^−1,inhibit HNE in U937 cells increasingly over the 26 h observation period,–
COC(=O)CCC(=O)N[C@@H](C)C(=O)N[C@@H](C)C(=O)N1CCC[C@H]1C(=O)N[C@H](C(=O)CCl)C(C)C [MeOSuc-AAPV-CMK] (MeOSuc-AAPV-CH2Cl),–,–,–,–,–,–,–,inhibit HNE in U937 cells increasingly over the 26 h observation period,–
CN(C(=O)c1cc2ccccc2cc1C(=O)C(c1cccc2ccccc12)P(=O)(O)O)C1CCN(C(=O)c2ccccc2)CC1 (centres unmarked) [Cathepsin G Inhibitor],–,> 10,–,–,–,–,–,–,inhibition of HNE (in words) [1]: no inhibition
"CC(C)(C)C(=O)Oc1ccc(S(=O)(=O)Nc2ccccc2C(=O)NCC(=O)O)cc1 [Sivelestat, sivelestat]",–,–,negligible effect,no detectable effect; also recorded: no measurable effect; also recorded: do not cause detectable intracellular inhibition,somewhat more effective in PMN than U937 cells,–,–,–,"inhibition at 4 µM [4]: 97 ± 0.6%; inhibition of elastase-like activity in HL-60 lysate [5]: 2 ± 1.2%; inhibition at 4 µM (HNE in U937 lysates; 4 µM, 1 h, 37 °C, read-out: inhibition of elastase-like activity in U937 lysate): 96 ± 0.3%; half-life of the complex with HNE (in words) (isolated HNE [3]): seconds to a few minutes; inhibition at 4 µM ([1]; 4 µM, 1 h, 37 °C, HNE 0.5 nM): 99 ± 0.3%"
CC(C)[C@@H]1C(=O)N(S(C)(=O)=O)[C@@H]2CCN(C(=O)/C=C/CN3CCCCC3)[C@H]21 [GW311616],–,–,–,–,somewhat less potent,–,–,inhibit HNE in U937 cells increasingly over the 26 h observation period,–
COc1cc(C(C)C)c2c(c1)S(=O)(=O)N(COc1cc(=O)n3cccc(OCCN4CCCCC4)c3n1)C2=O [SSR 69071],0.00033,–,–,–,–,9.2e-05,2.8 ± 0.06 × 10^5 M^−1 s^−1,most effective immediately after addition and then lose effect over time; also recorded: lose effectiveness over time,LDH release from U937 cells (U937 cells): 12 ± 2%; stability in cell culture medium (in words) [6]: appeared stable
neutrophil elastase (protein) IVGGRRARPHAWPFMVSLQLRGGHFCGATLIAPNFVMSAAHCVANVNVRAVRVVLGAHNLSRREPTRQVFAVQRIFENGYDPVNLLNDIVILQLNGSATINANVQVAQLPAQGRRLGNGVQCLAMGWGLLGRNRGIASVLQELNVTVVTSLCRRSNVCTLVRGRQAGVCFGDSGSPLVCNGLIHGIASFVRGGCASGLYPDAFAPVAQFVNWIDSIIQRSEDNPCPHPRDPDPASRTH,–,–,–,–,–,–,–,–,Ki (eglin C [7]): 0.013 nM; Ki (eglin C [8]): 0.00019 µM
"Eglin C: small leech-derived protein (70 amino acids, 8091 Da), proteinase inhibitor (protein, UniProt P01051 1-70, looked up) Eglin C: TEFGSELKSFPEVVGKTVDQAREYFTLHYPQYDVYFLPEGSPVTLDLRYNRVRVFYNPGTNVVNHVPHVG",–,–,inhibits intracellular HNE but only in mature neutrophils,do not inhibit HNE,–,3.8e-05,2.9 ± 0.09 × 10^6 M^−1 s^−1,–,"IC50 (HNE in mature PMN; read-out: IC50, HNE in PMN, 1 h incubation): ~0.02 µM; IC50 (HNE in mature PMN; read-out: IC50 for the inhibition of intracellular HNE, mature neutrophils): 0.02 µM; Kd (surface of neutrophils): 0.2 µM; fold less effective on HNE in cell lysates than on isolated HNE (HNE in U937 lysates; U937 lysate vs isolated HNE): 10 fold; fold less potent in PMN lysates (HNE in U937 lysates; printed 'PMN lysates'): ~ 10 fold; effect on HNE in U937 cells (HNE in U937 cells; 10 µM, after 26 h): little effect"

# From article PMC11276905 (International Journal of Molecular Sciences, 2024)
